From the supplement of paper PMC8671470

Columns and labels:
KG-1 = assay: cell viability (% survival relative to DMSO control, bortezomib = 0%); higher = less cytotoxic; settings: 72 h
In short: (§1)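 Percent survival figures are means of duplicate wells. They were obtained by CellTiter-Glo luminescence after 10 AML and 5 CML cell lines spent 72 h at 37 °C with 5% CO2 in 384-well plates with compounds at 1, 10, 100, 1000 or 10000 nM. Vehicle was set to 100% and a 10 µM positive control to 0%.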

LAMA-84 = assay: as above; settings: 72 h
In short: as §1

SMILES	cell viability (KG-1; 1 nM)	cell viability (KG-1; 10 nM)	cell viability (KG-1; 100 nM)	cell viability (KG-1; 1000 nM)	cell viability (KG-1; 10000 nM)	cell viability (LAMA-84; 1 nM)	cell viability (LAMA-84; 10 nM)	cell viability (LAMA-84; 100 nM)	cell viability (LAMA-84; 1000 nM)	cell viability (LAMA-84; 10000 nM)
Cl.OC[C@H]1NC[C@@H](O)[C@@H](O)[C@@H]1O [1-Deoxymannojirimycin hydrochloride]	105%	92.3%	90.6%	112%	94.1%	99.5%	93.4%	102%	94%	95.6%
CCOC(=O)[C@@]1(CCCCCCOc2ccc(Cl)cc2)CO1 [Etomoxir]	94.3%	99.8%	112%	94.5%	91.1%	94.9%	110%	106%	58.5%	62.7%
O=C(O)c1cc2sccc2[nH]1 [4H-thieno[3,2-b]pyrrole-5-carboxylic acid]	105%	106%	92.7%	91.8%	95.2%	101%	99.3%	110%	95.4%	105%
CCCc1nn(C)c2c(O)nc(-c3cc(S(=O)(=O)N4CCN(C)CC4)ccc3OCC)nc12 [Sildenafil]	95.9%	97%	95.7%	105%	108%	91.3%	98.8%	92.1%	95%	103%
CN(C)c1nc(O)c2[nH]cnc2n1 [2-Dimethylamino-6-hydroxypurine]	106%	94.3%	92.7%	96.7%	85.8%	101%	104%	97.7%	99.3%	103%
CC(C)C[C@H](NC(=O)[C@@H](O)[C@H](N)Cc1ccccc1)C(=O)O [Ubenimex]	111%	105%	98.9%	92.2%	88.9%	115%	101%	103%	101%	101%
O=C1Oc2ccccc2C(=O)C1CC1C(=O)Oc2ccccc2C1=O (stereo not given) [Dicumarol]	106%	105%	88.6%	101%	95.9%	97.3%	107%	95.5%	103%	105%
O=C(c1ccc(OCCN2CCCCC2)cc1)c1c(-c2ccc(O)cc2)sc2cc(O)ccc12 [Raloxifene]	102%	90.6%	92.1%	96.5%	75.1%	106%	102%	94.9%	95.5%	87.9%
Cc1coc2c1C(=O)C(=O)c1c-2ccc2c(C)cccc12 [Tanshinone I]	113%	99.9%	98%	99.3%	77.6%	104%	105%	101%	108%	95.4%
c1ccc2c(c1)OCC(=C1NCCN1)O2 [Idazoxan]	104%	112%	93.6%	96.4%	85.9%	101%	98.4%	89%	96.5%	93%
CC(/C=C1\SC(=S)N(CC(=O)O)C1=O)=C\c1ccccc1 [Epalrestat]	108%	101%	116%	104%	111%	104%	99.8%	82.6%	104%	99.8%
C1CCc2nnc(C34CC5CC(CC(C5)C3)C4)n2CC1 [MERCK-544]	101%	106%	98.5%	95.2%	105%	102%	94.5%	91.9%	92.9%	101%
N[C@](CCCCB(O)O)(CCN1CCCCC1)C(=O)O [Arginase inhibitor 1]	97.2%	84.2%	96.6%	100%	92%	99.9%	102%	96.1%	102%	88.9%
Clc1ccc2c(c1Cl)CNCC2	94.3%	98.7%	98.7%	101%	71.9%	98.6%	105%	93.7%	110%	94.4%
CC(C(=O)O)C(=O)O [Methylmalonate]	92.5%	90.8%	91.2%	88.9%	88.4%	89.2%	101%	106%	98.2%	90.3%
CCOC(=O)N1c2ccc(C(F)(F)F)cc2[C@@H](N(Cc2cc(C(F)(F)F)cc(C(F)(F)F)c2)C(=O)OC)C[C@H]1CC [Torcetrapib]	84.9%	52.6%	107%	81.1%	45.1%	116%	103%	110%	95.6%	110%
O=C(O)CCc1ccc(NCc2cccc(Oc3ccccc3)c2)cc1 [GW9508]	90.6%	101%	96.8%	108%	107%	96.8%	98.6%	108%	93.2%	106%
CC(Cc1ccc(O)c(O)c1)C(C)Cc1ccc(O)c(O)c1 (stereo not given) [Masoprocol]	99%	109%	108%	94.8%	48.2%	95.8%	95.7%	106%	95.5%	94%
Nc1ccn([C@@H]2O[C@H](CO)[C@@H](O)[C@@H]2O)c(=O)n1 [Cytarabine]	108%	108%	63.5%	21.8%	11.3%	93%	80.3%	38.5%	12.9%	5%
O=C(COc1ccc(C(=O)c2ccccc2)cc1)NC1CCN(Cc2ccccc2)CC1 [AdipoRon]	93.9%	107%	104%	91.9%	59.6%	96.9%	102%	93.8%	96.7%	61.1%
O=C(O)C(S)=Cc1c[nH]c2ccc(F)cc12	101%	95.1%	106%	101%	66.3%	96.9%	98.2%	92.6%	102%	102%
COc1cc2c(NC3CCN(C)CC3)nc(N3CCCN(C)CC3)nc2cc1OCCCN(C)C [UNC0224]	102%	117%	94.1%	96.8%	108%	91.1%	106%	96.5%	95.9%	95.8%

SMILES	cell viability (KG-1; 1 nM)	cell viability (KG-1; 10 nM)	cell viability (KG-1; 100 nM)	cell viability (KG-1; 1000 nM)	cell viability (KG-1; 10000 nM)	cell viability (LAMA-84; 1 nM)	cell viability (LAMA-84; 10 nM)	cell viability (LAMA-84; 100 nM)	cell viability (LAMA-84; 1000 nM)	cell viability (LAMA-84; 10000 nM)
C[C@]12CC[C@H](O)CC1=CC[C@@H]1[C@@H]2CC[C@]2(C)C(c3cccnc3)=CC[C@@H]12 [Abiraterone]	115%	101%	94.3%	101%	91.8%	105%	106%	94.1%	102%	108%
Cc1c(-c2ccccc2)oc2c(C(=O)OCCN3CCCCC3)cccc2c1=O.Cl [Flavoxate]	94.7%	108%	94.8%	97%	106%	98%	102%	97.6%	101%	101%
Clc1ccc(COC(Cn2ccnc2)c2ccc(Cl)cc2Cl)cc1 (stereo not given) [Econazole]	97.4%	95.3%	101%	86%	52.2%	103%	95.5%	91.8%	92%	58.1%
Sc1ncnc2nc[nH]c12 [6-mercaptopurine]	112%	103%	93.4%	97.9%	89.4%	102%	86.6%	87.9%	55.3%	12.6%
CCOC(=O)[C@H]1O[C@@H]1C(=O)N[C@@H](CC(C)C)C(=O)NCCC(C)C [Aloxistatin]	99.8%	104%	103%	92.9%	86.5%	93.7%	101%	101%	101%	98.6%
OCCN1CCN(CCCN2c3ccccc3Sc3ccc(Cl)cc32)CC1 [Perphenazine]	105%	93%	97.4%	99.7%	43.4%	105%	103%	93.5%	97.2%	47.6%
C[C@]12O[C@H](C[C@]1(O)CO)n1c3ccccc3c3c4c(c5c6ccccc6n2c5c31)CNC4=O [Lestaurtinib]	98.3%	69.3%	28%	10.3%	6.14%	99.6%	94.4%	34.2%	25%	0.148%
O=c1c2ccccc2[se]n1-c1ccccc1 [Ebselen]	98.2%	89.7%	105%	80.3%	75.4%	93.3%	97.1%	95.5%	92.1%	101%
O=C(O)C(Cl)Cl [Dichloroacetate]	108%	94.6%	91.5%	93%	103%	101%	100%	98%	101%	99.3%
O=P(O)(O)C(O)(Cn1ccnc1)P(=O)(O)O [Zoledronic acid]	99.3%	106%	111%	103%	108%	99.5%	104%	100%	98.2%	99.2%
CN(C/C=C/C#CC(C)(C)C)Cc1cccc2ccccc12 [Terbinafine]	94.1%	106%	90.9%	95.5%	92.6%	104%	97.7%	110%	101%	93.9%
[N-]=[N+]=CC(=O)CC[C@H](N)C(=O)O [6-Diazo-5-oxo-L-norleucine]	110%	95.2%	101%	117%	98.9%	98.5%	98.8%	101%	97.7%	100%
Cc1ccc(S(=O)(=O)NC2c3ccccc3Oc3ccccc32)cc1 [AH-7614]	100%	95.9%	102%	95.4%	104%	93.7%	98.8%	101%	95.5%	105%
O=C1Nc2ccccc2/C1=C\NCCc1ccc(O)c(O)c1 [AC1NZZMF]	112%	106%	104%	95.7%	78.7%	107%	108%	102%	101%	107%
CCOc1ccc(Cc2cc([C@@H]3O[C@H](CO)[C@@H](O)[C@H](O)[C@H]3O)ccc2Cl)cc1 [Dapagliflozin]	95.5%	102%	83.6%	101%	91.8%	98.1%	111%	89.7%	97.7%	90.5%
C=CCc1ccc2c(c1O)C(=O)c1ccccc1C2=O [R162]	85.5%	98%	107%	109%	114%	104%	97.2%	94.7%	103%	88.7%
C[C@H]1O[C@@H](O[C@H]2[C@@H](O)C[C@H](O[C@H]3[C@@H](O)C[C@H](O[C@H]4CC[C@@]5(C)[C@H](CC[C@@H]6[C@@H]5C[C@@H](O)[C@]5(C)[C@@H](C7=CC(=O)OC7)CC[C@]65O)C4)O[C@@H]3C)O[C@@H]2C)C[C@H](O)[C@@H]1O [Digoxin]	92%	108%	27.9%	0.685%	-0.0339%	92.3%	115%	20.6%	2.17%	2.06%
CC(C)Cc1sc(N)nc1-c1ccc(P(=O)(O)O)o1	110%	90.8%	102%	98.8%	108%	111%	97.4%	102%	94.4%	80.3%
O=C(O)c1nn(Cc2ccc(Cl)cc2Cl)c2ccccc12 [Lonidamine]	97.8%	103%	103%	84.7%	71.9%	99.1%	94.6%	108%	99.9%	102%
C1CCC(C(CC2CCCCN2)C2CCCCC2)CC1.O=C(O)/C=C\C(=O)O (stereo not given) [Perhexiline]	91.9%	85.2%	100%	95.6%	0.46%	97.7%	89.1%	98%	97.7%	12.3%
C#Cc1cnc(O)nc1O [Eniluracil]	103%	117%	107%	100%	114%	100%	102%	107%	109%	104%
